Where two headings read alike, the source gives them in different places.
Key:
[1] = test system: primary hippocampal neurons; assay: Excitotoxicity in dispersed primary hippocampal cultures (MTT cell survival); type: cell-based, Sprague Dawley rat
[2] = test system: organotypic hippocampal slice cultures, hippocampal CA1 region; assay: Oxygen/glucose deprivation of hippocampal organotypic slice cultures (PI staining); type: cell-based, Lister Hooded rat
NMDA receptor = type: cell-based
hippocampal slices = assay: Epileptiform bursting activity in hippocampal slices (field recordings, area CA3); type: cell-based, rat; details: irrespective of model: bicuculline, Mg2+-free, 4-AP, Ca2+-free/elevated K+
Protocol: Hippocampal slices were prepared from 4-6 week old rats that had been sacrificed by cervical dislocation and subsequent decapitation in accordance with UK Home Office guidelines. The brain was removed rapidly and hippocampal slices prepared by cutting 400 μm thick horizontal sections through the whole brain minus the cerebellum using a vibroslicer (Campden Instruments, Loughborough, UK). The hippocampus from these sections was dissected free from the surrounding brain regions and the resultant hippocampal slices placed on a nylon mesh at the interface of a warmed (32-34° C.), perfusing (1-2 ml.min^−1) artificial cerebrospinal fluid (aCSF) and an oxygen-enriched (95% O2, 5% CO2), humidified atmosphere. The standard perfusion medium comprised (mM): NaCl, 124; KCl, 3; NaHCO3, 26; NaH2PO4, 1.25; CaCl2, 2; MgSO4, 1; D-glucose, 10; and was bubbled with 95% O2, 5% CO2. Extracellular field potential recordings were made using glass microelectrodes (24 MΩ) filled with aCSF placed in stratum pyramidale in area CA3. […] Non synaptic field bursting activity (that is relevant to both epilepsy and migraine) was induced by removal of extracellular Ca^2+ and elevation of extracellular K^+ from 3 mM to 6-8 mM (FIG. 12).

hippocampal cultures = assay: Spontaneous synaptic activity and membrane potential in hippocampal cultures, Mg2+-free insult; type: cell-based, rat; details: 100 μM; applied before, during or after the Mg2+-free insult
Protocol: When Mg^2+ containing medium was reinstated 15 mins later there was a sustained increase in spontaneous activity above that recorded prior to the Mg^2+ free challenge. No change in the magnitude of the Ih current was recorded during or after the Mg^2+ free challenge. […] This reduction in activity differed from that induced by the NMDA receptor antagonist AP5 in that the frequency of activity in the presence of ZD7288 was much lower, yet individual events were much larger, than that observed in AP5.

[3] = test system: voltage-gated Na+ and K+ channels; assay: Selectivity: action potential firing; type: cell-based; details: 100 μM
Ih = assay: Whole-cell patch-clamp detection of Ih in neurones from both culture models; type: cell-based, rat
[4] = test system: metabotropic glutamate receptor; assay: Selectivity: metabotropic glutamate receptor activation; type: cell-based; details: 100 μM
SCN neurones = assay: Suprachiasmatic nucleus slices, extracellular single unit recordings; type: cell-based, rat; details: 10-100 μM; all neurones tested
Protocol: Supraachiasmatic nucleus slices were prepared from 4-6 week old rats that had been sacrificed by cervical dislocation and subsequent decapitation in accordance with UK Home Office guidelines. The brain was removed rapidly and SCN slices prepared by cutting 400 μm thick coronal sections through the whole brain minus the cerebellum using a vibroslicer (Campden Instruments, Loughborough, UK). The resultant SCN slices were placed in a warmed (32-34° C.) submersion recording chamber perfused at 1-2 ml.min^−1 with an oxygen-enriched (95% O2, 5% CO2) artificial cerebrospinal fluid (aCSF) comprised of (mM): NaCl, 124; KCl, 3; NaHCO3, 26; NaH2PO4, 1.25; CaCl2, 2; MgSO4, 1; D-glucose, 10. Extracellular single unit recordings were made using glass microelectrodes (24 MΩ) filled with aCSF placed in the SCN.

[5] = test system: voltage-gated Ca2+ channel; assay: Selectivity: voltage-gated Ca2+ channel activation; type: cell-based; details: 100 μM
HCN channels = details: non use-dependent; cited from earlier work

With `C[C@]12N[C@H](Cc3ccccc31)c1ccccc12` [MK-801] the “NEURONAL SURVIVAL (%)” value [1] was 101 ± 1.2% and the “DAMAGE (% Cell Loss)” value [2] was 34.90 ± 15.99%.
For `CCN(c1ccccc1)c1cc(=NC)n(C)c(C)n1.Cl` [ZD7288, N-ethyl-1,6-dihydro-1,2-dimethyl-6-(methylimino)-N-phenyl-4-pyrimidinamine hydrochloride], the “NEURONAL SURVIVAL (%)” value ([1]; 1 μM, added 30 minutes before, during, and for 24 h after the insult) was 40.6 ± 4.9%, the “NEURONAL SURVIVAL (%)” value ([1]; 3 μM, added 30 minutes before, during, and for 24 h after the insult) was 40.1 ± 8.1% and the “NEURONAL SURVIVAL (%)” value ([1]; 10 μM, added 30 minutes before, during, and for 24 h after the insult) was 48.4 ± 5.5%. For the same compound, the “NEURONAL SURVIVAL (%)” value ([1]; 30 μM, added 30 minutes before, during, and for 24 h after the insult) was 56.7 ± 2.0%, the “NEURONAL SURVIVAL (%)” value ([1]; 100 μM, added 30 minutes before, during, and for 24 h after the insult) was 65.9 ± 3.7% and the “NEURONAL SURVIVAL (%)” value ([1]; 100 μM, added during the 24 h recovery period only) was 78.0 ± 5.5%. For the same compound, the “NEURONAL SURVIVAL (%)” value ([1]; 100 μM, added during the insult only) was 79.5 ± 2.1%, the “NEURONAL SURVIVAL (%)” value ([1]; 300 μM, added 30 minutes before, during, and for 24 h after the insult) was 88.5 ± 2.7% and the “NEURONAL SURVIVAL (%)” value ([1]; 300 μM, added during the 24 h recovery period only) was 101.0 ± 1.2%. For the same compound, the “NEURONAL SURVIVAL (%)” value ([1]; 300 μM, added during the insult only) was 97.9 ± 9.6%, the “delay of application after the insult without loss of neuroprotective efficacy” value ([1]; FIG. 4) was “up to 60 minutes” and the IC50 ([1]; Rattus norvegicus, Hippocampal neuron, hippocampal neurones, read-out: IC50 for inhibition of damage) was about 120 µM. For the same compound, the “direct effects on NMDA receptor activation” value (NMDA receptor) was “no direct effects”, the “effect on epileptiform bursting activity” value (hippocampal slices) was “concentration dependent inhibition” and the “effect on membrane potential / current” value (hippocampal cultures) was “induced a membrane potential hyperpolarization/outward current”. The “effect on spontaneous activity” value (hippocampal cultures) was “reduced spontaneous activity”, the “direct effects on action potential firing (activation of voltage-gated Na+ and K+ channels)” value [3] was “no direct effects” and the “DAMAGE (% Cell Loss)” value ([2]; 100 nM, added 60 minutes before, during, and for 24 h after the insult) was 64.01 ± 4.66%. For the same compound, the “DAMAGE (% Cell Loss)” value ([2]; 300 nM, added 60 minutes before, during, and for 24 h after the insult) was 15.12 ± 9.54%, the “DAMAGE (% Cell Loss)” value ([2]; 1 μM, added 60 minutes before, during, and for 24 h after the insult) was 0.72 ± 0.44% and the “DAMAGE (% Cell Loss)” value ([2]; 10 μM, added 60 minutes before, during, and for 24 h after the insult) was 4.58 ± 3.09%. The “DAMAGE (% Cell Loss)” value ([2]; 100 μM, added immediately after the insult and for the 24 h recovery period only) was 12.50 ± 8.24%, the neuroprotection ([2]; applied immediately after oxygen glucose deprivation, FIG. 3) was “neuroprotection was still observed” and the “electrophysiological responses in stratum pyramidale and stratum radiatum of area CA1” value ([2]; treated slices subjected to OGD, single-shock electrical stimulation in stratum radiatum, FIG. 3) was “possible to evoke normal electrophysiological responses”. For the same compound, the “block of Ih” value (Ih; 100 μM) was “almost completely blocked”, the “inhibition of hyperpolarization-activated current (Ih)” value (Ih; 0.1-100 μM) was “inhibited” and the “direct effects on metabotropic glutamate receptor activation” value [4] was “no direct effects”. For the same compound, the “effect on frequency of single unit firing” value (SCN neurones) was “concentration dependent reduction”, the “direct effects on voltage-gated Ca2+ channel activation” value [5] was “no direct effects” and the “concentration range inhibiting HCN channels” value (HCN channels) was 1 to 300 µM.
